Test results taken from publication PMC9505123, “Zeta-Carotene Isomerase (Z-ISO) Is Required for Light-Independent Carotenoid Biosynthesis in the Cyanobacterium Synechocystis sp. PCC 6803” (Microorganisms, 2022).

Biological target: T1, Synechocystis ZDS (CrtQ) (Synechocystis sp. PCC 6803, UniProt P74306)
T1 construct: pCDFDuet-1 MCS1, co-expressed with slr1599 (pAH587) or maize Z-ISO (pAH590) in E. coli BL21(DE3) with pAC-ZETAipi
T1 sequence (P74306 1-489): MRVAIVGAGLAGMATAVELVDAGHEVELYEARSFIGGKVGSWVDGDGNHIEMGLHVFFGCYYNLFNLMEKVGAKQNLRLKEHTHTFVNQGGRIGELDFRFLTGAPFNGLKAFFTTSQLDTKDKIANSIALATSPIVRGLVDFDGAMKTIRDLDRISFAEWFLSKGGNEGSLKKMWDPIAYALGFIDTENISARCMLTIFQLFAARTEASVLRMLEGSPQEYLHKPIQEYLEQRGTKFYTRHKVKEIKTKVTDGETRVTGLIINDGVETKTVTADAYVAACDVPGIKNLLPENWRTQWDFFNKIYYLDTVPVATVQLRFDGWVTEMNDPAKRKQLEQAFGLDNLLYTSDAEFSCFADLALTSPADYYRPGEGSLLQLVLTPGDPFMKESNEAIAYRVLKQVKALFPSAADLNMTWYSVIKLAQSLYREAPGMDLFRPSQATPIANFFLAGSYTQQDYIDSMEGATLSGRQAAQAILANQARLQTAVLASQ
Experiment: RP-HPLC of carotenoids from dark-grown E. coli co-expressing pAC-ZETAipi and Z-ISO
Type: cell-based
Settings: 37 °C, 24 h, substrate formed in situ by Slr1599 or maize Z-ISO, converted to cis-lycopene isomers

For `CC(C)=CCC/C(C)=C/CC\C(C)=C/C=C/C(C)=C/C=C/C=C(C)/C=C/C=C(/C)CC/C=C(\C)CCC=C(C)C` [9,9′-di-cis-ζ-carotene], the “RP-HPLC of carotenoids from dark-grown E. coli co-expressing pAC-ZETAipi and Z-I” value was “ζ-carotene species were almost completely absent and a variety of new carotenoid species”.
